Where two headings read alike, the source gives them in different places.
How the values were obtained:
human CB2R = molecular target: T1, human CB2R (Homo sapiens, UniProt P34972); assay: [3H]CP55,940 displacement assay on CHO membranes, CB2R; type: binding; settings: for hCB2R % displacement at 10 µM: [3H]CP55,940 displacement at 10 µM compound, ± SEM; for Ki: [3H]CP55,940 displacement; for Binding to CB2R (in words): radioligand binding assay
T1 construct: host or cells: CHO-K1 (CHOK1hCB2_bgal)
T1 sequence (P34972 whole entry): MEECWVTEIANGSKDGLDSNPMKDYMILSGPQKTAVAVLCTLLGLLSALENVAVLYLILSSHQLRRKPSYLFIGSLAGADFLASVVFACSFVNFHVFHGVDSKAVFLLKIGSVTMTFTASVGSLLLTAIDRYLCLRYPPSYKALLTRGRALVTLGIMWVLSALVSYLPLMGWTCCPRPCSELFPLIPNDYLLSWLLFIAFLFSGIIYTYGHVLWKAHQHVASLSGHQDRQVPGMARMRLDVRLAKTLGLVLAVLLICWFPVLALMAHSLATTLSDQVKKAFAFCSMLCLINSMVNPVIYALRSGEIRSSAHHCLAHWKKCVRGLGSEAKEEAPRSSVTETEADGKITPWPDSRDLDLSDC

hCB1R = hCB1R (Homo sapiens, UniProt P21554); assay: [3H]CP55,940 displacement assay on CHO membranes, CB1R; type: binding; design: host or cells: CHO-K1 (CHOK1hCB1_bgal); settings: for Ki: [3H]CP55,940 displacement; for hCB1R % displacement at 10 µM: [3H]CP55,940 displacement at 10 µM compound, ± SEM; for Binding to CB1R (in words): radioligand binding assay
Sequence of hCB1R (P21554 whole entry): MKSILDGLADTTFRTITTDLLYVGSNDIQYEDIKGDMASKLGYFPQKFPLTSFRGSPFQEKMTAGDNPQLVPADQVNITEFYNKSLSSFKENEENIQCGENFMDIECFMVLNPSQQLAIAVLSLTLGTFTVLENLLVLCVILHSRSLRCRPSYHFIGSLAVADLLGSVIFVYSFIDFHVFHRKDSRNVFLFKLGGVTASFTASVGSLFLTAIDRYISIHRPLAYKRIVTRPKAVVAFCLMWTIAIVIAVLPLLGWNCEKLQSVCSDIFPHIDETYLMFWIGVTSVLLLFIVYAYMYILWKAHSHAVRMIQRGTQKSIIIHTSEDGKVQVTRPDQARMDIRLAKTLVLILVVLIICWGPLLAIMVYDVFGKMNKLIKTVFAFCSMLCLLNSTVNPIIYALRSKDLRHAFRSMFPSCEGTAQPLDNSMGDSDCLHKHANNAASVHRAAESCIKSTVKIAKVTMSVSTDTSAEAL

[1] = Photophysical characterization in PBS; type: physicochemical; settings: PBS pH 7.4
[2] = CHO membranes stably expressing human CB2R, means of three experiments, read-out: hCB2R Ki
[3] = CHO membranes stably expressing human CB1R, means of three experiments, read-out: hCB1R Ki
[4] = hCB2R Ki, CHO membranes stably expressing human CB2R, means of three experiments
[5] = hCB1R Ki, CHO membranes stably expressing human CB1R, means of three experiments
[6] = read-out: hCB2R Ki, CHO membranes stably expressing human CB2R, means of three experiments
[7] = read-out: hCB1R Ki, CHO membranes stably expressing human CB1R, means of three experiments

Row | Structure (SMILES) | hCB2R % displacement at 10 µM (human CB2R) [%] | Ki (hCB1R; [3]) [nM] | Ki (human CB2R; [4]) [nM] | Ki (hCB1R; [5]) [nM] | hCB1R % displacement at 10 µM (hCB1R) [%] | Abs (absorbance maximum) [1] [nm] | Em (emission maximum) [1] [nm] | QY (quantum yield) [1] [%] | further results
1 | CCC(CC)(NC(=O)c1cc(-c2cc(C(F)(F)F)ccc2C(F)(F)F)n(C[C@H]2CCCO2)c1C)C(=O)NCCOCCNC(=O)OC(C)(C)C [Compound 22a, tert-Butyl (R)-(2-(2-(2-(5-(2,5-Bis(trifluoromethyl)phenyl)-2-methyl-1-((tetrahydrofuran-2-yl)methyl)-1H-pyrrole-3-carboxamido)-2-ethylbutanamido)ethoxy)ethyl)carbamate] | 20 ± 3 | 1420 |  |  |  |  |  |  | Ki (human CB2R; [2]): > 10000 nM
2 | CCC(CC)(NC(=O)c1cc(-c2cc(C(F)(F)F)ccc2C(F)(F)F)n(C[C@H]2CCCO2)c1C)C(=O)NCCOCCOCCOCCNC(=O)OC(C)(C)C [Compound 22c, tert-Butyl (R)-(1-(5-(2,5-Bis(trifluoromethyl)phenyl)-2-methyl-1-((tetrahydrofuran-2-yl)methyl)-1H-pyrrol-3-yl)-3,3-diethyl-1,4-dioxo-8,11,14-trioxa-2,5-diazahexadecan-16-yl)carbamate] | 23 ± 5 | 1220 |  |  |  |  |  |  | Ki (human CB2R; [2]): > 10000 nM
3 | CCC(CC)(NC(=O)c1nn(-c2ccc(Cl)cc2Cl)c(-c2ccc(Cl)cc2)c1C)C(=O)NCCOCCNC(=O)OC(C)(C)C [Compound 23a, tert-Butyl (2-(2-(2-(5-(4-Chlorophenyl)-1-(2,4-dichlorophenyl)-4-methyl-1H-pyrazole-3-carboxamido)-2-ethylbutanamido)ethoxy)ethyl)carbamate] |  |  | 1590 |  |  |  |  |  | Ki (hCB1R; hCB1R pKi ± SEM, CHO membranes): 37.2 nM
4 | CCC(CC)(NC(=O)c1nn(-c2ccc(Cl)cc2Cl)c(-c2ccc(Cl)cc2)c1C)C(=O)NCCOCCOCCOCCNC(=O)OC(C)(C)C [Compound 23c, tert-Butyl (1-(5-(4-Chlorophenyl)-1-(2,4-dichlorophenyl)-4-methyl-1H-pyrazol-3-yl)-3,3-diethyl-1,4-dioxo-8,11,14-trioxa-2,5-diazahexadecan-16-yl)carbamate] |  |  | 2120 | 397 |  |  |  |  | 
5 | CCC(CC)(NC(=O)c1nn(-c2ccc(Cl)cc2Cl)c(-c2ccc(Cl)cc2)c1C)C(=O)NCCOCCOCCOCCOCCNC(=O)OC(C)(C)C [Compound 23d, tert-Butyl (1-(5-(4-Chlorophenyl)-1-(2,4-dichlorophenyl)-4-methyl-1H-pyrazol-3-yl)-3,3-diethyl-1,4-dioxo-8,11,14,17-tetraoxa-2,5-diazanonadecan-19-yl)carbamate] |  |  | 2120 | 603 |  |  |  |  | 
6 | CCC(CC)(NC(=O)c1nn(-c2ccc(Cl)cc2Cl)c2c1CCCc1cc(Cl)ccc1-2)C(=O)NCCOCCOCCNC(=O)OC(C)(C)C [Compound 24, tert-Butyl (1-(8-Chloro-1-(2,4-dichlorophenyl)-1,4,5,6-tetrahydrobenzo[6,7]cyclohepta[1,2-c]pyrazol-3-yl)-3,3-diethyl-1,4-dioxo-8,11-dioxa-2,5-diazatridecan-13-yl)carbamate] |  |  | 776 | > 10000 | 28 ± 3 |  |  |  | 
7 | CCC(CC)(NC(=O)c1cnc(OCC2CC2)c(-c2ccc(F)cc2)c1)C(=O)NCCOCCOCCNC(=O)OC(C)(C)C [Compound 25, tert-Butyl (1-(6-(Cyclopropylmethoxy)-5-(4-fluorophenyl)pyridin-3-yl)-3,3-diethyl-1,4-dioxo-8,11-dioxa-2,5-diazatridecan-13-yl)carbamate] |  |  | 818 | 3060 |  |  |  |  | Ki (hCB1R; hCB1R pKi ± SEM, CHO membranes): 3020 nM
8 | CCC(CC)(NC(=O)c1cnc(OCCOC)c(-c2ccc(Cl)cc2)n1)C(=O)NCCOCCOCCNC(=O)OC(C)(C)C [Compound 26, tert-Butyl (1-(6-(4-Chlorophenyl)-5-(2-methoxyethoxy)pyrazin-2-yl)-3,3-diethyl-1,4-dioxo-8,11-dioxa-2,5-diazatridecan-13-yl)carbamate] |  | > 10000 |  |  | 32 ± 6 |  |  |  | Ki (human CB2R; [2]): 701 nM
9 | CCC(CC)(NC(=O)c1nn(Cc2cccc(F)c2)c2ccccc12)C(=O)NCCOCCOCCNC(=O)OC(C)(C)C [Compound 27, tert-Butyl (3,3-Diethyl-1-(1-(3-fluorobenzyl)-1H-indazol-3-yl)-1,4-dioxo-8,11-dioxa-2,5-diazatridecan-13-yl)carbamate] |  |  | 108 | > 10000 | 48 ± 2 |  |  |  | 
10 | CCC(CC)(NC(=O)c1nn(-c2ccc(Cl)cc2Cl)c(-c2ccc(Cl)cc2)c1C)C(=O)NCCOCCOCCNC(=O)c1ccc2c(c1)C(=O)OC21c2ccc(N(C)C)cc2Oc2cc(N(C)C)ccc21 [Compound 31] | 32 ± 6 |  |  |  | 37 ± 5 | 520 | 585 | 17.50 | Ki (human CB2R; [6]): > 10000 nM; Ki (hCB1R; [7]): > 10000 nM
11 | CCC(CC)(NC(=O)c1nn(-c2ccc(Cl)cc2Cl)c2c1CCCc1cc(Cl)ccc1-2)C(=O)NCCOCCOCCNc1ccc([N+](=O)[O-])c2nonc12 [Compound 32, 8-Chloro-1-(2,4-dichlorophenyl)-N-(3-((2-(2-(2-((7-nitrobenzo[c][1,2,5]oxadiazol-4-yl)amino)ethoxy)ethoxy)ethyl)carbamoyl)pentan-3-yl)-1,4,5,6-tetrahydrobenzo[6,7]cyclohepta[1,2-c]pyrazole-3-carboxamide] |  |  | 309 | > 10000 | 35 ± 6 | 485 | 570 | 1.30 | 
12 | CCC(CC)(NC(=O)c1nn(-c2ccc(Cl)cc2Cl)c2c1CCCc1cc(Cl)ccc1-2)C(=O)NCCOCCOCCNC(=O)c1ccc2c(c1)C(=O)OC21c2ccc(N(C)C)cc2Oc2cc(N(C)C)ccc21 [Compound 33] | 21 ± 3 |  |  |  | -5 ± 1 | 520 | 585 | 11.10 | Binding to CB2R (in words) (human CB2R): did not bind; Ki (human CB2R; [6]): > 10000 nM; Binding to CB1R (in words) (hCB1R): did not bind; Ki (hCB1R; [7]): > 10000 nM
13 | CCC(CC)(NC(=O)c1cnc(OCCOC)c(-c2ccc(Cl)cc2)n1)C(=O)NCCOCCOCCNc1ccc([N+](=O)[O-])c2nonc12 [Compound 34, 6-(4-Chlorophenyl)-5-(2-methoxyethoxy)-N-(3-((2-(2-(2-((7-nitrobenzo[c][1,2,5]oxadiazol-4-yl)amino)ethoxy)ethoxy)ethyl)carbamoyl)pentan-3-yl)pyrazine-2-carboxamide] |  | > 10000 |  |  | 32 ± 6 | 480 | 545 | 2.00 | Ki (human CB2R; CHO membranes, read-out: hCB2R pKi ± SEM (converted)): 708 nM
14 | CCC(CC)(NC(=O)c1cnc(OCCOC)c(-c2ccc(Cl)cc2)n1)C(=O)NCCOCCOCCNC(=O)c1ccc2c(c1)C(=O)OC21c2ccc(N(C)C)cc2Oc2cc(N(C)C)ccc21 [Compound 35] | 2 ± 0 | > 10000 |  |  | -6 ± 5 | 560 | 590 | 56.20 | Ki (human CB2R; [2]): > 10000 nM; Binding to CB2R (in words) (human CB2R): did not bind; Binding to CB1R (in words) (hCB1R): did not bind
15 | CCC(CC)(NC(=O)c1nn(Cc2cccc(F)c2)c2ccccc12)C(=O)NCCOCCOCCNc1ccc([N+](=O)[O-])c2nonc12 [Compound 36, 1-(3-Fluorobenzyl)-N-(3-((2-(2-(2-((7-nitrobenzo[c][1,2,5]oxadiazol-4-yl)amino)ethoxy)ethoxy)ethyl)carbamoyl)pentan-3-yl)-1H-indazole-3-carboxamide] |  |  | 79 | 1170 |  | 475 | 565 | 1.50 | 
